# Reference: patent US8497385B2, “Bryostatin analogues, synthetic methods and uses” (The Board of Trustees of the Leland Stanford Junior …, priority 2007, dated 2013)
# What was measured:
# P388 cell line = test: P388 Murine Lymphocytic Leukemia Cell Assay; assay type: cell-based
# Protocol: Cells from a P388 cell line (CellGate, Inc., Sunnyvale, Calif.) are grown in RPMI 1640 cell medium containing fetal calf serum (10%), L-glutamine, penicillin, streptomycin and are split twice weekly. All compounds are first diluted with DMSO. Later serial dilutions are done with a phosphate buffer solution (HYQ DPBS modified phosphate buffered saline). All dilutions are done in glass vials and the final DMSO concentration is always below 0.5% by volume. Final two-fold dilutions are done in a 96 well plate using cell media so that each well contains 50 μL. All compounds are assayed in quadruplicate over 12 concentrations. Cell concentration is measured using a hemacytometer and the final cell concentration is adjusted to 1×10^4 cells/mL with cell medium. The resulting solution of cells (50 μL) is then added to each well and the plates are incubated for 5 days in a 37° C., 5% CO2, humidified incubator (Sanyo CO2 incubator). MTT solution (3-[4,5-dimethylthiazol-2-yl]-2,5-diphenyltetrazolium bromide, 10 μL) is then added to each well and the plates are re-incubated under identical conditions for 2 h. To each well is then added acidified isopropanol (150 μL of i-PrOH solution containing 0.05 N HCl) and mixed thoroughly. The plates are then scanned at 595 nm and the absorbances are read (Wallac Victor 1420 Multilabel Counter). The resulting data is then analyzed to determine an ED50 value using the Prism software package (GraphPad).
# BT-549 = test: NCI growth inhibition, BT-549 (Breast); assay type: cell-based, human
# RPMI-8226 = test: NCI growth inhibition, RPMI-8226 (Leukemia); assay type: cell-based, human
# IGROVI = test: NCI growth inhibition, IGROVI (Ovarian); assay type: cell-based, human
# HOP-92 = test: NCI growth inhibition, HOP-92 (NSC Lung); assay type: cell-based, human
# U251 = test: NCI growth inhibition, U251 (CNS); assay type: cell-based, human
# HCT-116 = test: NCI growth inhibition, HCT-116 (Colon); assay type: cell-based, human
# UACC-62 = test: NCI growth inhibition, UACC-62 (Melanoma); assay type: cell-based, human
# SK-OV-3 = test: NCI growth inhibition, SK-OV-3 (Ovarian); assay type: cell-based, human
# SK-MEL-5 = test: NCI growth inhibition, SK-MEL-5 (Melanoma); assay type: cell-based, human
# SW-620 = test: NCI growth inhibition, SW-620 (Colon); assay type: cell-based, human
# TK-10 = test: NCI growth inhibition, TK-10 (Renal); assay type: cell-based, human
# OVCAR-3 = test: NCI growth inhibition, OVCAR-3 (Ovarian); assay type: cell-based, human
# MOLT-4 = test: NCI growth inhibition, MOLT-4 (Leukemia); assay type: cell-based, human
# SR = test: NCI growth inhibition, SR (Leukemia); assay type: cell-based, human
# MI4 = test: NCI growth inhibition, MI4 (Melanoma); assay type: cell-based, human
# SF-539 = test: NCI growth inhibition, SF-539 (CNS); assay type: cell-based, human
compound,measurement,setting,value
CCCCCCCC(=O)OC1C(=CC(=O)OC)CC2CC(CO)OC(=O)CC(O)CC3CCCC(CC4CCOC(C=CC(C)(C)C1(O)O2)O4)O3 (stereo not drawn) [Formula IIa (702.1)],activity in P388 assay relative to comparison analogues,"P388 cell line; 702.1 vs C26 methyl-containing analogue, 48, 49 vs other C20 esters",significantly higher activity
same,P388 Assay ED50,"P388 cell line; 5 days incubation, MTT",17 nM
same,"Difference of GI50 (log), Desmethyl vs Bryo-1",BT-549; BT-549,0.39
same,GI50,"BT-549; BT-549, Breast",−4.71 log of molar concentration
same,"Difference of GI50 (log), Desmethyl vs Bryo-1",RPMI-8226; RPMI-8226,−0.82
same,GI50,"RPMI-8226; RPMI-8226, Leukemia",−5.82 log of molar concentration
same,"Difference of GI50 (log), Desmethyl vs Bryo-1",IGROVI,0.42
same,GI50,IGROVI; Ovarian,−4.88 log of molar concentration
same,"Difference of GI50 (log), Desmethyl vs Bryo-1",HOP-92; HOP-92,0.63
same,GI50,"HOP-92; HOP-92, NSC Lung",−4.67 log of molar concentration
same,"Difference of GI50 (log), Desmethyl vs Bryo-1",U251; U251,−0.30
same,GI50,"U251; U251, CNS",−5.4 log of molar concentration
same,"Difference of GI50 (log), Desmethyl vs Bryo-1",HCT-116; HCT-116,−0.02
same,GI50,"HCT-116; HCT-116, Colon",−5.32 log of molar concentration
same,"Difference of GI50 (log), Desmethyl vs Bryo-1",UACC-62; UACC-62,0.19
same,GI50,"UACC-62; UACC-62, Melanoma",−5.11 log of molar concentration
same,"Difference of GI50 (log), Desmethyl vs Bryo-1",SK-OV-3; SK-OV-3,0.80
same,GI50,"SK-OV-3; SK-OV-3, Ovarian",−4.3 log of molar concentration
same,"Difference of GI50 (log), Desmethyl vs Bryo-1",SK-MEL-5; SK-MEL-5,−0.73
same,GI50,"SK-MEL-5; SK-MEL-5, Melanoma",−6.43 log of molar concentration
same,"Difference of GI50 (log), Desmethyl vs Bryo-1",SW-620; SW-620,0.38
same,GI50,"SW-620; SW-620, Colon",−5.12 log of molar concentration
same,"Difference of GI50 (log), Desmethyl vs Bryo-1",TK-10; TK-10,−2.03
same,GI50,"TK-10; TK-10, Renal",−7.03 log of molar concentration
same,more active than bryostatin-1,"TK-10; TK-10, Renal",more than 2 orders of magnitude
same,"Difference of GI50 (log), Desmethyl vs Bryo-1",OVCAR-3; OVCAR-3,0.27
same,GI50,"OVCAR-3; OVCAR-3, Ovarian",−4.83 log of molar concentration
same,"Difference of GI50 (log), Desmethyl vs Bryo-1",MOLT-4; MOLT-4,−2.50
same,GI50,"MOLT-4; MOLT-4, Leukemia",<−8.0 log of molar concentration
same,more active than bryostatin-1,"MOLT-4; MOLT-4, Leukemia",more than 2 orders of magnitude
same,"Difference of GI50 (log), Desmethyl vs Bryo-1",SR,−0.10
same,GI50,SR; Leukemia,−5.1 log of molar concentration
same,"Difference of GI50 (log), Desmethyl vs Bryo-1",MI4; MI4,−0.26
same,GI50,"MI4; MI4, Melanoma",−5.26 log of molar concentration
same,"Difference of GI50 (log), Desmethyl vs Bryo-1",SF-539; SF-539,−0.77
same,GI50,"SF-539; SF-539, CNS",−5.77 log of molar concentration
